Results from US20030027856A1, “Tolterodine metabolites” (priority 2001, published 2003).

Test system: muscarinic receptors
Test: Functional characterization of antimuscarinic activities on smooth muscle strips
Design: species or system guinea pig
Details: pharmacological studies in comparison with tolterodine
Method: Experiments are performed using methods similar to those described by Kachur et al, 1988 (R and S enantiomers of oxybutynin: Pharmacological effects in guinea pig bladder and intestine. J Pharmacol Exp Ther 247: 867-872) and Noronha-Blob and Kachur, 1991 (Enantiomers of Oxybutynin: In vitro pharmacological characterization at M1, M2 and M3 muscarinic receptors and in vivo effects on urinary bladder contraction, mydriasis and salivary secretion in guinea pigs. J Pharmacol Exp Ther 256: 562-567). Strips of tissue (approximately 10 mm long and 1.5 mm wide) are removed from the body of the urinary bladder of male guinea pigs weighing 400-600 g. […] Contractions are recorded with transducers on a polygraph.
The present series of experiments focuses on the anticholinergic actions of DES-TOLT, and RS-DES-TOLT and their metabolites. In these experiments, in order to assess the viability of each tissue and to serve as a frame of reference, contractions of each strip of tissue are recorded initially in response to exposure to tissue medium in which NaCl is replaced by KCl to yield a concentration of 137.7 mM KCl in the medium. This is followed by return to the standard medium, and then by exposures to progressively in creasing concentrations of carbachol, with separate exposures to each concentration only until the peak response has been recorded. […]

Row | antimuscarinic activities | SMILES
1 | potent antimuscarinic activities | CC(C)NCC[C@H](c1ccccc1)c1cc(CO)ccc1O [5-HM-DES-TOLT, R(+)-N-Isopropyl-3-(2-hydroxy-5-(hydroxymethyl)phenyl)-3-phenylpropylamine]
2 | potent antimuscarinic activities | Cc1ccc(O)c([C@H](CCNC(C)C)c2ccccc2)c1 [DES-TOLT, R(+)-N-isopropyl-3-(2-hydroxy-5-methylphenyl)-3-phenylpropylamine]

Test system: not listed separately
Test: Cardiac side effects: QTc interval of the EKG in anesthetized guinea pigs
Type: in vivo
Details: guinea pig, intravenous infusion over 30 min
Method: Male guinea pigs (450-600 g) are anesthetized with freshly prepared dialurethane sodium. The jugular vein is catheterized for iv administration of test drugs and the trachea is exposed and cannulated. Subdermal electrodes are positioned for Lead II electrocardiogram recording, monitored on a Grass Polygraph recorder, set at a paper speed of 50 mm/sec. The animals are allowed to stabilize for 30 minute after completion of surgery, and three baseline EKG recordings are then made at 10-minute intervals. The animals are then given a dose of the test compound or vehicle as an intravenous infusion over 30 min. EKG recordings are used to determine QT intervals and heart rates. To compensate for variations in heart rates, QTc intervals are calculated from QT- and RR-intervals as known to those skilled in the art. Prolongation of QTc is indicative of a prolonged action potential, caused by an inhibition of the delayed rectifier potassium channel. Prolongation of QTc is the known cause of Torsades de Pointes ventricular fibrillation by drugs such as terfenadine, astemizole and terodiline (now withdrawn from the market).

Row | SMILES | prolongation of the QTc-interval of the EKG
3 | CC(C)N(CCC(c1ccccc1)c1cc(CO)ccc1O)C(C)C (centres unmarked) [RS-5-HM, RS-N,N-diisopropyl-3-(2-hydroxy-5-(hydroxymethyl)phenyl)-3-phenylpropylamine] | did not cause a prolongation of the QTc interval
4 | CC(C)N(CC[C@H](c1ccccc1)c1cc(CO)ccc1O)C(C)C [5-HM, R(+)-N,N-diisopropyl-3-(2-hydroxy-5-(hydroxymethyl)phenyl)-3-phenylpropylamine] | did not cause a prolongation of the QTc interval
5 | Cc1ccc(O)c(C(CCNC(C)C)c2ccccc2)c1 (centres unmarked) [RS-DES-TOLT, RS-N-Isopropyl-3-(2-hydroxy-5-methylphenyl)-3-phenylpropylamine] | did not cause a prolongation of the QTc interval
6 | Cc1ccc(O)c([C@H](CCN(C(C)C)C(C)C)c2ccccc2)c1 [TOLT, R(+)-N,N-diisopropyl-3-(2-hydroxy-5-methylphenyl)-3-phenylpropylamine] | cause a prolongation of the QTc-interval
7 | Cc1ccc(O)c([C@H](CCNC(C)C)c2ccccc2)c1 [DES-TOLT, R(+)-N-isopropyl-3-(2-hydroxy-5-methylphenyl)-3-phenylpropylamine] | did not cause a prolongation of the QTc interval
8 | Cc1ccc(O)c(C(CCN(C(C)C)C(C)C)c2ccccc2)c1 (centres unmarked) [RS-TOLT, RS-N,N-diisopropyl-3-(2-hydroxy-5-methylphenyl)-3-phenylpropylamine, reference compound] | cause a prolongation of the QTc-interval
